The source of these data is patent publication US20120009674A1, “Use of a GSK-3 Inhibitor to Maintain Potency of Cultured Cells” (ABT Holding Company, priority 2005, published 2012).

Series [1] can be described thus: Stability of BIO in culture, expansion media without cells (mass spectroscopy). As to conditions: absence of cells, 72-hour period, 1 μM BIO, 37° C., 18% O2, 5% CO2, expansion media. It counts as physicochemical.
Series [2] relates to human embryonic stem (ES) cell. The following applies: human ES cells; Oct-3a, Rex-1 and Nanog expression; cited from earlier work.
In series [3] the test system is mouse embryonic stem (ES) cell. As to conditions: mouse ES cells; Oct-3a, Rex-1 and Nanog expression; cited from earlier work.
In series [4] the test system is Oct-3A. In words: Western blot of Oct-3A protein in BIO treated MAPCs. It counts as cell-based, human. The following applies: BIO treated vs untreated MAPCs from the same donor, FIG. 3. In general terms: In western blotting, separated proteins are transferred to a membrane and probed.
Series [5] addresses CDK2-cyclin A (Homo sapiens, UniProt P24941). The following applies: at 10 μM; cited from earlier work.
Series [6] relates to mouse mesodermal stem cell line. The following applies: Chen, S., et al. (2003); cited from earlier work.

With `O=C1Nc2cc(Br)ccc2/C1=C1/Nc2ccccc2/C1=N\O` [BIO, 6-bromoindirubin-3′-oxime], in series [1], the “BIO stable (native BIO remaining)” value was “approximately 95%”. Moreover, the “maintenance of ES cultures in an undifferentiated pluripotent state” value in series [2] and in series [3] was “able to substitute for the addition of feeder cultures or addition of exogenous cytokines in maintaining the ES cultures in an undifferentiated pluripotent state” throughout. In series [4], the “Oct-3A protein level (Western blot)” value was “increases or protects the amount of detectable Oct-3A”.
Turning to `CN(C)CCC(=O)Nc1n[nH]c2nnc(-c3ccccc3)cc12` [Pyrazolopyridine 9], the “Inhibits CDK2-cyclin A” value in series [5] is reported as “A (90% at 10 μM)”.
With `CCCC(=O)Nc1n[nH]c2ncc(-c3ccccc3F)cc12` [Pyrazolopyridine 18], the “Inhibits CDK2-cyclin A” value in series [5] is “A (95% at 10 μM)”.
As to `c1nc2nc(Nc3ccc(N4CCOCC4)cc3)nc(NC3CCCCC3)c2[nH]1` [reversine], the “de-differentiation of committed myoblast” value in series [6] was “acted to “de-differentiate” the cell line from a committed myoblast, back to the multipotent precursor”.
